Data reported in US20240083908A1, “TETRAHYDROTHIENOPYRIMIDINESULFONAMIDE COMPOUNDS” (priority 2020, published 2024).

Target: human recombinant PARG (Homo sapiens (Human), UniProt Q86W56)
Experiment: PARG Activity Assay
Type: biochemical
Settings: recombinant human PARG 0.0185 nM, 1 hour pre-incubation, poly (ADP-ribose) substrate-coated plate, Abs 450
Description: In order to evaluate the PARG inhibitory activity of the present compound, the inhibitory activity of each test compound against human recombinant PARG was measured. The specific procedure is described below.
Test compound was dissolved in dimethyl sulfoxide and prepared a 10 mM stock solution.
PARG Activity Assay was performed in Streptavidin-coated 96-well plates. […] The substrate solution was added to the 96-well plate at the volume of 200 micro liter per well and incubated for 3 hours at room temperature. After the incubation, the substrate solution was discarded and assay plate was washed 4 times with 220 micro liter of PBS containing 0.1% Tween20 (PBST). […] The diluted enzyme solution was pre-incubated with compounds for 1 hour at room temperature in a 96-well plate and transferred 100 micro liter per well to the poly (ADP-ribose) substrate-coated assay plate. The plate was incubated for 1 hour at 25° C. and then washed 4 times with 220 micro liters of PBST. For the detection of non-digested poly (ADP-ribose) polymer on the plate, mouse anti-poly (ADP-ribose) antibody diluted with 0.2% BSA containing PBS was added 100 micro liters per well and incubated 1 hour at room temperature. Plate was washed 4 times with TBST and 100 micro liter of HRP-labeled anti-mouse Ig antibody was added to the wells. Plate was incubated for 30 minutes at room temperature and then washed 4 times with PBST. For the detection 100 micro liters of TMB substrate solution was added to the wells. After sufficient color development, reaction was stopped by addition of 50 micro liter of 0.2 M […]. The 450 nm absorbance (Abs 450) of each well was read with a micro plate reader. The assay was performed by duplicated and average of 2 independent assays were used for the determination of PARG inhibitor y activity.
Wells treated with dimethyl sulfoxide instead of test compound solution were designated as a Negative Control of assay
Wells treated with 0.2% BSA containing PBS instead of recombinant human PARG protein and with dimethyl sulfoxide instead of test compound solution were designated as a Positive Control of assay.
The PARG Inhibitory Activity (%) was determined by the following formulation.
PARG Inhibitory Activity (%)=[(AbsX−AbsA)/(AbsB−AbsA)]×100
(wherein, • AbsA is absorbance (Abs 450) of Negative Control wells • AbsB is absorbance (Abs 450) of Positive Control wells • AbsX is absorbance (Abs 450) of wells treated with test compound.)
In Table, Ex indicates an Example number shown below.

Sequence of human recombinant PARG (Q86W56 whole entry): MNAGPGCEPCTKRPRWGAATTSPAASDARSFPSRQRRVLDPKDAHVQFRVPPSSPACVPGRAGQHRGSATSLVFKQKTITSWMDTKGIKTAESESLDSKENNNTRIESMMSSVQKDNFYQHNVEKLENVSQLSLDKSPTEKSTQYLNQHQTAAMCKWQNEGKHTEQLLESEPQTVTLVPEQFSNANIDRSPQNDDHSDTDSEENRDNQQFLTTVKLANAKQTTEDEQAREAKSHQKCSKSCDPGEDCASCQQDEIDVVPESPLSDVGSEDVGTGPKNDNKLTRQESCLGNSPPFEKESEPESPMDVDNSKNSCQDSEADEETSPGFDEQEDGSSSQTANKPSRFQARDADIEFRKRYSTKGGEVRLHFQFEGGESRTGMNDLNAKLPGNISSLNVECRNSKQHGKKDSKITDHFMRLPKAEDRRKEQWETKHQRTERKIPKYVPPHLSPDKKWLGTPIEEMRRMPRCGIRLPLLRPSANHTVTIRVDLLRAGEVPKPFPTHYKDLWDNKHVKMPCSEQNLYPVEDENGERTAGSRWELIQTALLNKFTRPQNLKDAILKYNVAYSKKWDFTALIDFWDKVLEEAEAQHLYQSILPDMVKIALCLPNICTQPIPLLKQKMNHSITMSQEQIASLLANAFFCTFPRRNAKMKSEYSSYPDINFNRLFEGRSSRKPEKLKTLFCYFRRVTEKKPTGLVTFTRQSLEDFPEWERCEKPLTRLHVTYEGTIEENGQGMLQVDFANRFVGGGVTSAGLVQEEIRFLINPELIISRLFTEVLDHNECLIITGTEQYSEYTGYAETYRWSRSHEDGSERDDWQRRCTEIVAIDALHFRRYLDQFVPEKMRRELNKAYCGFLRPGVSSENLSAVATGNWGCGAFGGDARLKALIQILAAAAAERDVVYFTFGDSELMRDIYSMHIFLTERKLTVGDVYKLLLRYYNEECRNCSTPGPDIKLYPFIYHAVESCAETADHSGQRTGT

SMILES | IC50 [nM]
CNc1cc(Cn2c(=O)n(Cc3cnn(C)c3)c(=O)c3cc(S(=O)(=O)NC4(C)CC4)sc32)c(F)cc1F [Ex 124] | 73
Cn1cc(Cn2c(=O)c3cc(S(=O)(=O)NC4(C)CC4)sc3n(CC3CC3)c2=O)cn1 [Ex 26] | 370
Cn1cc(Cn2c(=O)c3cc(S(=O)(=O)NC4(C)CC4)sc3n(Cc3ccc4c(c3)CNC4=O)c2=O)cn1 [Ex 60] | 24
Cc1nn(C)cc1Cn1c(=O)n(Cc2cnn(C)c2)c(=O)c2cc(S(=O)(=O)NC3(C)CC3)sc21 [Ex 32] | 6990
Cn1cc(Cn2c(=O)c3cc(S(=O)(=O)NC4(C)CC4)sc3n(Cc3ccc(F)c(C#N)c3)c2=O)cn1 [Ex 70] | 60
Cc1ncc(Cn2c(=O)c3cc(S(=O)(=O)NC4(C)CC4)sc3n(Cc3ccc4c(c3)OCC4)c2=O)s1 [Ex 13] | 41
CN1Cc2ccc(Cn3c(=O)n(Cc4cnn(C)c4)c(=O)c4cc(S(=O)(=O)NC5(C)CC5)sc43)cc2C1 [Ex 67] | 100
Cn1cc(Cn2c(=O)c3cc(S(=O)(=O)NC4(C)CC4)sc3n(Cc3ccc(N4CC(O)C4)nc3)c2=O)cn1 [Ex 90] | 17
COCCC(=O)N1CCC(n2c(=O)n(Cc3cnn(C)c3)c(=O)c3cc(S(=O)(=O)NC4(C)CC4)sc32)CC1 [Ex 94] | 270
Cn1cc(Cn2c(=O)c3cc(S(=O)(=O)NC4(C)CC4)sc3n(CCc3ccccc3)c2=O)cn1 [Ex 132] | 660
Cc1nc(C)c(Cn2c(=O)n(Cc3cnn(C)c3)c(=O)c3cc(S(=O)(=O)NC4(C#N)CC4)sc32)s1 [Ex 101] | 64
Cc1ncc(Cn2c(=O)c3cc(S(=O)(=O)NC4(C)CC4)sc3n(CC3CCOC3)c2=O)s1 (stereo not shown) [Ex 16] | 970
COCCN(C)c1ccc(Cn2c(=O)n(Cc3cnn(C)c3)c(=O)c3cc(S(=O)(=O)NC4(C)CC4)sc32)cc1F [Ex 75] | 130
Cc1ncc(Cn2c(=O)c3cc(S(=O)(=O)NC(C)C)sc3n(CC3CC3)c2=O)s1 [Ex 22] | 93100
CC(=O)N1CCC(Cn2c(=O)n(Cc3cnn(C)c3)c(=O)c3cc(S(=O)(=O)NC4(C)CC4)sc32)CC1 [Ex 86] | 160
Cn1cc(Cn2c(=O)c3cc(S(=O)(=O)NC4(C)CC4)sc3n(Cc3ccc4c(c3)NC(=O)C4)c2=O)cn1 [Ex 131] | 6.3
CO[C@H]1CCN(c2ccc(Cn3c(=O)n(Cc4cnn(C)c4)c(=O)c4cc(S(=O)(=O)NC5(C)CC5)sc43)cn2)C1 [Ex 84] | 200
Cn1cc(Cn2c(=O)c3cc(S(=O)(=O)NC4(C)CC4)sc3n(Cc3ccc(Oc4ccc(F)cc4)nc3)c2=O)cn1 [Ex 128] | 130
Cn1cc(Cn2c(=O)c3cc(S(=O)(=O)NC4(C)CC4)sc3n(Cc3cnc4[nH]ccc4c3)c2=O)cn1 [Ex 37] | 9
COc1c(C)cnc(Cn2c(=O)n(Cc3cnn(C)c3)c(=O)c3cc(S(=O)(=O)NC4(C)CC4)sc32)c1C [Ex 133] | 1180
Cn1cc(Cn2c(=O)c3cc(S(=O)(=O)NC4(C)CC4)sc3n(Cc3ccc(=O)n(C)c3)c2=O)cn1 [Ex 88] | 23
Cn1cc(Cn2c(=O)c3cc(S(=O)(=O)NC4(C)CC4)sc3n(Cc3ccc4[nH]c(CO)cc4c3)c2=O)cn1 [Ex 116] | 15
CNS(=O)(=O)c1cc2c(=O)n(Cc3cnc(C)s3)c(=O)n(CC3CC3)c2s1 [Ex 23] | 97000
Cn1cc(Cn2c(=O)c3cc(S(=O)(=O)NC4(C)CC4)sc3n(Cc3ccc(OC(F)F)cc3)c2=O)cn1 [Ex 51] | 33
COCc1cc2cc(Cn3c(=O)n(Cc4cnn(C)c4)c(=O)c4cc(S(=O)(=O)NC5(C)CC5)sc43)ccc2[nH]1 [Ex 89] | 13
CN1CCC(Cn2c(=O)n(Cc3cnn(C)c3)c(=O)c3cc(S(=O)(=O)NC4(C)CC4)sc32)CC1=O (stereo not shown) [Ex 87] | 220

SMILES | IC50 [nM]
COC(=O)c1cc(Cn2c(=O)n(Cc3cnn(C)c3)c(=O)c3cc(S(=O)(=O)NC4(C)CC4)sc32)ccc1F [Ex 126] | 45
CN1Cc2ccc(Cn3c(=O)n(Cc4cnn(C)c4)c(=O)c4cc(S(=O)(=O)NC5(C)CC5)sc43)cc2C1=O [Ex 62] | 29
COCc1ncc(Cn2c(=O)n(Cc3cnn(C)c3)c(=O)c3cc(S(=O)(=O)NC4(C)CC4)sc32)s1 [Ex 58] | 260
Cc1cc(Cn2c(=O)n(Cc3cnn(C)c3)c(=O)c3cc(S(=O)(=O)NC4(C)CC4)sc32)ccc1F [Ex 135] | 37
Cn1cc(Cn2c(=O)c3cc(S(=O)(=O)NC4(C)CC4)sc3n(Cc3cnc4c(c3)OCCO4)c2=O)cn1 [Ex 65] | 68
Cn1cc(Cn2c(=O)c3cc(S(=O)(=O)NC4(C)CC4)sc3n(Cc3ccc(OC(F)(F)F)cc3)c2=O)cn1 [Ex 52] | 100
Cn1cc(Cn2c(=O)c3cc(S(=O)(=O)NC4(C)CC4)sc3n(Cc3ccc(F)cc3)c2=O)cn1 [Ex 46] | 9.2
Cc1ncc(Cn2c(=O)c3cc(S(=O)(=O)NC4(C)CC4)sc3n(CCOC3CNC3)c2=O)s1 [Ex 7] | 210
Cc1ncc(Cn2c(=O)c3cc(S(=O)(=O)NC4(C)CC4)sc3n(Cc3cc4n(n3)CCOC4)c2=O)s1 [Ex 19] | 130
Cn1cc(Cn2c(=O)c3cc(S(=O)(=O)NC4(C)CC4)sc3n(Cc3cc4n(n3)CCOC4)c2=O)cn1 [Ex 33] | 35
Cc1cc(Cn2c(=O)n(Cc3cnn(C)c3)c(=O)c3cc(S(=O)(=O)NC4(C)CC4)sc32)n(C)n1 [Ex 30] | 37
Cn1cc(Cn2c(=O)c3cc(S(=O)(=O)NC4(C)CC4)sc3n(Cc3ccc(F)c(Cl)c3)c2=O)cn1 [Ex 48] | 120
COc1cncc(Cn2c(=O)n(Cc3cnn(C)c3)c(=O)c3cc(S(=O)(=O)NC4(C)CC4)sc32)c1 [Ex 42] | 40
CNCCCC(=O)N1CCC(n2c(=O)n(Cc3cnn(C)c3)c(=O)c3cc(S(=O)(=O)NC4(C)CC4)sc32)CC1 [Ex 96] | 130
Cn1cc(Cn2c(=O)c3cc(S(=O)(=O)NC4(C)CC4)sc3n(Cc3ccc(N4CC[C@H](O)C4)nc3)c2=O)cn1 [Ex 83] | 110
Cn1cc(Cn2c(=O)c3cc(S(=O)(=O)NC4(C)CC4)sc3n(Cc3nc4c(s3)CCCC4)c2=O)cn1 [Ex 129] | 46
Cn1cc(Cn2c(=O)c3cc(S(=O)(=O)NC4(C)CC4)sc3n(Cc3ccc(Cl)c(F)c3)c2=O)cn1 [Ex 47] | 130
Cn1cc(Cn2c(=O)c3cc(S(=O)(=O)NC4(C)CC4)sc3n(Cc3ccc4[nH]ncc4c3)c2=O)cn1 [Ex 38] | 4.1
CCC(=O)N1CCC(n2c(=O)n(Cc3cnn(C)c3)c(=O)c3cc(S(=O)(=O)NC4(C)CC4)sc32)CC1 [Ex 93] | 180
COCCNc1ncc(Cn2c(=O)n(Cc3cnn(C)c3)c(=O)c3cc(S(=O)(=O)NC4(C)CC4)sc32)cn1 [Ex 79] | 70
Cc1ncc(Cn2c(=O)c3cc(S(=O)(=O)NC4(C)CC4)sc3n(Cc3nc4ccccc4[nH]3)c2=O)s1 [Ex 18] | 580
COc1c(F)cc(Cn2c(=O)n(Cc3cnn(C)c3)c(=O)c3cc(S(=O)(=O)NC4(C)CC4)sc32)cc1F [Ex 123] | 29
Cc1ncc(Cn2c(=O)c3cc(S(=O)(=O)NC4(C)CC4)sc3n(Cc3nc4c(o3)CCCC4)c2=O)s1 [Ex 20] | 110
Cn1cc(Cn2c(=O)c3cc(S(=O)(=O)NC4(C)CC4)sc3n(Cc3cnc(NCCO)nc3)c2=O)cn1 [Ex 80] | 420
CN1CCc2ccc(Cn3c(=O)n(Cc4cnn(C)c4)c(=O)c4cc(S(=O)(=O)NC5(C)CC5)sc43)cc2C1=O [Ex 118] | 120
Cn1cc(Cn2c(=O)c3cc(S(=O)(=O)NC4(C)CC4)sc3n(CC34CC(F)(C3)C4)c2=O)cn1 [Ex 119] | 240
